The values below come from US8916527B2, “Antibiotic macrocycle compounds and methods of manufacture and use thereof” (Optimer Pharmaceuticals, Inc., priority 2007, dated 2014).

One may read the solubility as the dissolved amount per volume that the medium holds.

Like-named read-outs stand apart in the source and are kept apart here. Some results are limits rather than exact numbers.

The subject of data set [1] is Micromonas (formerly Peptostreptococcus) micros, ATCC 33270. Briefly: MIC, agar dilution method. The settings on record: Parvimonas micra, ATCC33270; Micromonas micros ATCC 33270. It is filed as cell-based.
The test system of data set [2] is Lactobacillus acidophilus, ATCC 4356. Briefly: MIC, agar dilution method. The data set is classed as cell-based. The note with it: ATCC4356. (In agar dilution, organisms are placed on agar that contains the substance at set levels.)
Data set [3] concerns Streptococcus pneumoniae, ATCC 49619. The data set is described as follows: MIC, microbroth dilution method. The settings on record: ATCC49619. A general note: In broth dilution the organism is exposed to a series of concentrations in liquid medium.
In data set [4] the test system is Clostridium perfringens, ATCC 13124. Briefly: microbe, parasite or virus in culture. The data set is classed as cell-based. The settings on record: ATCC13124.
Data set [5] concerns ORG 150 B. fragilis 25285. Briefly: MIC, anaerobic panel, agar dilution method. The data set is classed as cell-based. The settings on record: Bacteroides fragilis, Table 3, read-out: MIC, panel of anaerobic bacteria.
Data set [6] has as its system Staphylococcus epidennidis, clinical strain ORG#365. The data set is described as follows: MIC, microbroth dilution method.
In data set [7] the test system is Lactobacillus rhamnosus, ATCC 7496. The data set is described as follows: MIC, agar dilution method. It is filed as cell-based.
For data set [8], the system named is Clostridium difficile, ATCC 700057. Briefly: MIC, agar dilution method. The settings on record: Clostridioides difficile, ATCC700057. It is filed as cell-based. Here is the method:
(§1) Agar Dilution Method: (1)
(§2) This method was used for anaerobic organisms (Bacteroides, Clostridium, Bifidiobacteria, Prevotella, Fusobacterium, Peptococcus, Peptostreptococcus, Veillonella) and microaerophilic Lactobacillus spp, all of which were purchased form American Type Culture Collection (ATCC):
(§3) 1. Two fold dilutions of compounds were made in Brucella agar supplemented with hemin, vitamin K and 5% laked sheep blood to achieve a final concentration range from 0.016 μg/mL to 16 μg/mL.
(§4) 3. Plates were incubated in an anaerobic chamber at 35° C. for 48 hours. For the Lactobacillus strains, Mueller Hinton Agar and an incubation atmosphere of 5% CO2 were used.
(§5) 4. The lowest concentration of an antibiotic showing no growth or marked reduction in growth was read as the MIC.

For data set [9], the system named is Clostridium difficile, ATCC 43255. The data set is described as follows: MIC, agar dilution method. It is filed as cell-based. The settings on record: Clostridioides difficile, ATCC43255. Here is the method:
as §1, §2, §3, §4, §5

Data set [10] has as its system Bifidiobacterium longum, ATCC 15707. The data set is described as follows: MIC, agar dilution method. The data set is classed as cell-based. The settings on record: Table 1 gram positive GI flora.
In data set [11] the test system is Staphylococcus aureus, Methicilin resistant clinical strain ORG#578. Briefly: MIC, microbroth dilution method.
In data set [12] the test system is Peptostreptococcus anaerobius, ATCC 27337. The data set is described as follows: MIC, agar dilution method. It is filed as cell-based. The note with it: ATCC27337.
The subject of data set [13] is Peptoniphilus (formerly Peptococcus) asaccharolyticus, ATCC 29743. The data set is described as follows: MIC, agar dilution method. It is filed as cell-based. The settings on record: Peptoniphilus asaccharolyticus ATCC 29743.
The test system of data set [14] is Enterococcus faecium, Vancomycin resistant clinical strain ORG#364. The data set is described as follows: MIC, microbroth dilution method.
A further data set relates to E. faecium. The data set is described as follows: MIC profiling. The note with it: Enterococcus faecium.
The conditions of data set [15]: in vivo, po.
Another data set can be described thus: physchem. It is filed as physicochemical. The settings on record: water; read-out: Aqueous solubility.
The subject of data set [16] is Lactobacillus. casei, ATCC 393. Briefly: MIC, agar dilution method. It is filed as cell-based. The settings on record: Lacticaseibacillus casei, ATCC393.
For data set [17], the system named is Enterococcus faecium, ATCC 19434. The data set is described as follows: MIC, microbroth dilution method.
Data set [18] deals with C. difficile ATCC strain 700057. The data set is described as follows: Effect of fecal material on in vitro activity, microbroth dilution MIC. The data set is classed as cell-based. The note with it: for MIC: Clostridioides difficile.
The subject of data set [19] is Streptococcus pyogenes, ATCC 19615. Briefly: MIC, microbroth dilution method.
In data set [20] the test system is ORG 83 E. faecalis ATCC 29212. Briefly: MIC, aerobic panel, microbroth dilution method. The settings on record: Enterococcus faecalis, ATCC29212, read-out: Aerobic Panel MIC.
The subject of data set [21] is Staphylococcus aureus, ATCC 33591 (Methicilin resistant). The data set is described as follows: MIC, microbroth dilution method.
The subject of data set [22] is ORG 99 S. epidermidis ATCC 12228. Briefly: MIC, aerobic panel, microbroth dilution method. The note with it: Staphylococcus epidermidis, ATCC12228, read-out: Aerobic Panel MIC.
The test system of data set [23] is ORG 84 E. faecium ATCC 700221 VRE. The data set is described as follows: MIC, aerobic panel, microbroth dilution method. The note with it: Enterococcus faecium, read-out: Aerobic Panel MIC.
Data set [24] concerns Staphylococcus aureus, ATCC 29213. Briefly: MIC, microbroth dilution method.
Data set [25] concerns Finegoldia (formerly Peptococcus) magna, ATCC 29328. The data set is described as follows: MIC, agar dilution method. It is filed as cell-based. The note with it: Finegoldia magna ATCC 29328.
A further data set concerns S. aureus. Briefly: MIC profiling. The note with it: Staphylococcus aureus.
Data set [26] has as its system gram positive bacteria (C. difficile, C. perfringenes, B. longum, F. magna, P. asaccharolyticus, P. anaerobius, M. micros, L. casei). It is filed as cell-based.
Data set [27] concerns Enterococcus faecium, Vancomycin resistant clinical strain ORG#360. The data set is described as follows: MIC, microbroth dilution method.
For data set [28], the system named is Enterococcus faecium, Vancomycin resistant clinical strain ORG#534. Briefly: MIC, microbroth dilution method.

For `CCc1c(Cl)c(O)c(Cl)c(O)c1C(=O)O[C@H]1[C@H](O)[C@H](OC)[C@H](OC/C2=C\C=C\C[C@H](O)/C(C)=C/[C@H](CC)[C@@H](O[C@@H]3OC(C)(C)[C@@H](O)[C@H](O)[C@@H]3O)/C(C)=C/C(C)=C/C[C@@H]([C@@H](C)O)OC2=O)O[C@@H]1C` [Formula II], the MIC in data set [1] was 1 µg/mL; in data set [2] it was over 16 µg/mL; in [3] it was over 64 µg/mL; in data set [4], 1 µg/mL; in data set [5], over 16 µg/mL; in [6], 64 µg/mL. The MIC in [7] (Lacticaseibacillus rhamnosus, ATCC7496, L. rhamnosus, read-out: MIC) is over 16 µg/mL; in data set [7] (Lactobacillus rhamnosus ATCC 7496) it was over 16 µg/mL; in [8] (Clostridium difficile ATCC 700057, Table 1 gram positive GI flora, read-out: MIC) it was 2 µg/mL; in [8] (ORG 830 C. difficile ATCC 700057, Table 3, read-out: MIC, panel of anaerobic bacteria) it was 0.5 to 1 µg/mL; in [9] it was 4 µg/mL; in data set [10], 1 µg/mL. Further, the MIC in [11] was over 64 µg/mL; in [12] it was 0.25 µg/mL; in [13], 4 µg/mL; in [14] it was 64 µg/mL; in the data set with E. faecium, over 16 µg/mL; in data set [16] it was 8 µg/mL. The MIC was over 64 µg/mL in data set [17] (ATCC19434); over 64 µg/mL in data set [17] (ATCC19434, read-out: Aerobic Panel MIC); 4 µg/mL in [18] (ATCC700057, C. difficile ATCC strain 700057, read-out: MIC in the presence of 5% fecal material); 1 µg/mL in data set [18] (ATCC700057, Diluent Brucella broth only, C. difficile ATCC 700057, read-out: MIC); 4 µg/mL in data set [18] (ATCC700057, Diluent Brucella broth with feces (5% fecal slurry), C. difficile ATCC 700057, read-out: MIC); over 64 µg/mL in data set [19] (ATCC19615). The MIC is over 32 µg/mL in data set [19] (ATCC19615, read-out: Aerobic Panel MIC); 16 to 64 µg/mL in data set [20]; over 64 µg/mL in data set [21] (ATCC33591); over 64 µg/mL in data set [21] (ATCC33591 / MRSA, read-out: Aerobic Panel MIC); over 32 µg/mL in [22]; over 32 µg/mL in [23]. The MIC in data set [24] (ATCC29213) is over 64 µg/mL; in data set [24] (ATCC29213 / MSSA, read-out: Aerobic Panel MIC), over 64 µg/mL; in [25], 8 µg/mL; against S. aureus, over 16 µg/mL; in data set [27], over 64 µg/mL; in [28] it was over 64 µg/mL. In [15], the “levels detected in plasma” value is “most of which fell below the limit of quantification”. Besides, the solubility in “physchem” was about 300 mg/mL. The “Fold increase in MIC” value in data set [18] (Brucella broth with feces vs Brucella broth only, C. difficile ATCC 700057) is given as 4x. Also, in data set [18] (C. difficile), the “activity against C. difficile compared with vancomycin” value was “as active as vancomycin”. Moreover, the “fold increase in MIC values in the presence of 5% fecal material” value in [18] (C. difficile ATCC strain 700057) is recorded as “four fold”. Further, the “MIC values relative to those of OPT-80” value in [26] is reported as “four to sixteen fold greater”.
Regarding `CN[C@H](CC(C)C)C(=O)N[C@H]1C(=O)N[C@@H](CC(N)=O)C(=O)N[C@H]2C(=O)N[C@H]3C(=O)N[C@H](C(=O)N[C@H](C(=O)O)c4cc(O)cc(O)c4-c4cc3ccc4O)[C@H](O)c3ccc(c(Cl)c3)Oc3cc2cc(c3O[C@@H]2O[C@H](CO)[C@@H](O)[C@H](O)[C@H]2O[C@H]2C[C@](C)(N)[C@H](O)[C@H](C)O2)Oc2ccc(cc2Cl)[C@H]1O` [Vancomycin, reference compound], in data set [18], the “Fold increase in MIC” value was 4x and the “fold increase in MIC values in the presence of 5% fecal material” value was “four fold”. The MIC in data set [18] (ATCC700057, read-out: MIC in the presence of 5% fecal material) stood at 8 µg/mL.
